From PubChem BioAssay AID1361 (SRMLSC, 2008)
The source made the active and inactive calls. How the calls were made is not given here.

Assay: blockers of mitochondrial fusion, WT vs mutant – cell-based, chemical genetic, wild-type and mutant, confirmation (AID 1361)
Conditions: Cell-based mitochondrial fusion phenotype, imaging
[1] = mutant cells, measured here: mutant cell line IC50

Structure (SMILES) | IC50 (WT cells) | IC50 [1] [µM]
O=S(Cc1ccc(Br)cc1)Cc1nnc(SCc2c(F)cccc2Cl)n1-c1ccccc1 (stereo not drawn) | > 25 µM (inactive) | > 25
CCCC(NC(=S)NCC1CCCO1)C12CC3CC(CC(C3)C1)C2 (stereo not drawn) | 7.52 µM | > 25
Cc1ccnc(NS(=O)(=O)c2ccc(N=CC3=C(O)CC(C)(C)CC3=O)cc2)n1 | > 25 µM (inactive) | > 25
OCCNc1c2c(nc3ccccc13)CCCC2 | > 25 µM (inactive) | > 25
COc1ccc(OC)c(-c2cc(C3CCN(c4cc(Cl)nc(N)n4)CC3)[nH]n2)c1 | > 25 µM (inactive) | > 25
CC1(C(=O)N(Cc2ccccc2)Cc2ccccc2)CC1(Br)Br (stereo not drawn) | 15.7 µM | > 25
Cc1ccc(N=Cc2c(O)n(-c3ccc4c(c3)OCO4)c(=O)c3ccccc23)cc1 | > 25 µM (inactive) | > 25
COc1ccc(C(=NNc2ccccc2C(=O)O)c2ccc(OC)cc2)cc1 | 17.8 µM | > 25
COc1ccc(OCC(O)CNCc2ccco2)cc1 (stereo not drawn) | > 25 µM (inactive) | > 25
CS(=O)(=O)N(CC(=O)NCc1ccc2c(c1)OCO2)c1ccc(Cl)cc1 | > 25 µM (inactive) | > 25
CCCOc1ccc(Cc2c(Cl)nc(SC)nc2N(C)C)cc1 | 9.94 µM | > 25
COC(=O)Nc1snnc1C | > 25 µM (inactive) | > 25
C/C(=N\Nc1cc(-c2ccccc2)nc(-c2ccccc2)n1)c1ccc(O)c(C)c1 | 3.31 µM | > 25
COc1cccc(-c2cnc(OC(C)(C)C)nc2OC(C)(C)C)c1 | 24 µM | > 25
CC(C)(C)CC(C)(C)NC(=O)Nc1cccc([N+](=O)[O-])c1 | > 25 µM (inactive) | > 25
CCOC(=O)C1=C(C)N=C2SCCC(=O)N2C1c1sccc1C (stereo not drawn) | > 25 µM (inactive) | > 25
COc1ccc(C2=Nc3cccc4cccc(c34)N2)cc1 | > 25 µM (inactive) | > 25
COC(=O)CNC(c1ccccc1)c1cc(Cl)ccc1NC(=O)c1cccc(Cl)c1 (stereo not drawn) | 10.4 µM | > 25
CCC1=NN2C(=N)/C(=C\c3cccn3-c3ccc(C)cc3C)C(=O)N=C2S1 | 13.2 µM | > 25
C[C@@H](C[C@@H](O)[C@H](O)C(C)(C)O)[C@@H]1CC[C@]2(C)C3=CC[C@H]4C(C)(C)C(=O)CC[C@]4(C)[C@H]3CC[C@@]12C | > 25 µM (inactive) | > 25

Structure (SMILES) | IC50 (WT cells) | IC50 [1] [µM]
CCCNC(=S)Nc1ccc2nc(-c3ccccn3)c(-c3ccccn3)nc2c1 | > 25 µM (inactive) | > 25
Cc1nc2ccccc2c2oc(C(=O)Nc3ccc(C(C)C)cc3)cc12 | > 25 µM (inactive) | > 25
O=C(/C=C/Nc1cccc(C(F)(F)F)c1)C(F)(F)F | > 25 µM (inactive) | > 25
COC(=O)C1CN(C#N)N(c2ccc(Cl)cc2)C12c1ccccc1-c1ccccc12 (stereo not drawn) | 2.48 µM | > 25
O=C(CCSc1ccc(Cl)cc1)NC12CC3CC(CC(C3)C1)C2 | 13.1 µM | > 25
O=C(Nc1ccccn1)c1ccco1 | > 25 µM (inactive) | > 25
Cc1ccc(NC(=S)Nc2ccc(C(C)C)cc2)cc1S(=O)(=O)N1CCCCCC1 | 15 µM | > 25
O=C(c1cc(Cl)cc(Cl)c1)N1CCC(=O)N(C(COCc2ccccc2)Cc2ccccc2)CC1 (stereo not drawn) | > 25 µM (inactive) | > 25
Cc1ccc(NNC(=O)C(O)(c2cccc(C(F)(F)F)c2)c2cccc(C(F)(F)F)c2)cc1 | 22.3 µM | > 25
CC1=CC(C)(C)N(C(=O)c2ccc(F)cc2)c2cc3c(cc21)OCO3 | > 25 µM (inactive) | > 12.5
c1ccc(CNc2nc(-c3cccs3)nc3ccccc23)cc1 | > 25 µM (inactive) | > 25
Cc1ncsc1C(=O)N1N=C2/C(=C/c3ccccc3)CCCC2C1c1ccccc1 (stereo not drawn) | 10.3 µM | > 25
COCC(C)NC(=O)c1cc(-c2cccc(OC)c2)on1 (stereo not drawn) | > 25 µM (inactive) | > 25
CCCC[C@@H]1C[C@H]1[C@@H](NC(=O)c1ccco1)c1ccc(Cl)cc1 | 21.4 µM | > 25
CCCCOC(=O)Nc1cccc(C(=O)OCC)c1 | > 25 µM (inactive) | > 25
CN(c1cccc(NC(=O)Nc2ccc(Cl)cc2)c1)S(C)(=O)=O | > 25 µM (inactive) | > 25
CCCC(=O)NC(=S)Nc1cccc(Cl)c1N1CCCCC1 | 22.5 µM | > 25
O=C(CN1CCN(c2ccccn2)CC1)N1c2ccccc2Sc2ccc(C(F)(F)F)cc21 | 16 µM | > 25
O=c1c2c3c(sc2nc(NCCO)n1CCc1ccccc1)CCCCC3 | 22.3 µM | > 25
CCCCCCOC1(c2ccccc2)OC(=O)c2ccccc21 (stereo not drawn) | 17 µM | 21.5

Structure (SMILES) | IC50 (WT cells) | IC50 [1] [µM]
Cc1cc(C)nc(N2CCCC(C(=O)NCc3cccs3)C2)n1 (stereo not drawn) | > 25 µM (inactive) | > 25
CSc1nc2ccc(NS(=O)(=O)c3c(Cl)cccc3Cl)cc2s1 | 19.3 µM | > 25
CCc1nnc(NC(=O)c2ccc(S(=O)(=O)N(CC(C)C)CC(C)C)cc2)o1 | 22.5 µM | > 25
CCc1ccccc1N(C1=NCCCS1)S(=O)(=O)c1ccc(C(C)(C)C)cc1 | 7.58 µM | > 25
Cc1ccccc1OCC(=O)Nc1ccccc1N1CCC(C)CC1 | 16.1 µM | > 25
CCOc1ccccc1NC(C)C(=O)Nc1cc(C(F)(F)F)ccc1N1CCOCC1 (stereo not drawn) | 19 µM | 22.2
C(=N\Nc1nc(Nc2ccccc2)nc(Nc2ccccc2)n1)/c1cccnc1 | 20.9 µM | > 25
COc1ccc(/C=C/C(=O)N2CCN(c3ccccn3)CC2)c2ccccc12 | 19.9 µM | > 25
C/C(=N\Nc1nc(N2CCCCCC2)nc(N2CCCCCC2)n1)c1ccccc1 | 12.6 µM | > 25
CC(C)C(=O)N1CCC(CN=Cc2c(O)n(C3CCCCC3)c(=O)n(C3CCCCC3)c2=O)CC1 | 23 µM | > 25
Cc1cc2c3c(c1)C1(SCC(=O)N1c1ccc(F)cc1)C(=O)N3C(C)(C)CC2C (stereo not drawn) | > 25 µM (inactive) | > 25
CC1CCN(S(=O)(=O)c2ccc(Oc3ccc([N+](=O)[O-])cc3)cc2)CC1 | > 25 µM (inactive) | > 25
COC(=O)Cn1ccc(N(C)C)c(C#N)c1=O | > 25 µM (inactive) | > 25
c1ccc(Cn2c(CNc3nc4ccccc4n3CCN3CCCCC3)nc3ccccc32)cc1 | > 25 µM (inactive) | > 25
Cc1ccc(C(C)C)c(OCc2ccc(C(=O)N/N=C/c3ccc(O)cc3O)cc2)c1 | > 25 µM (inactive) | > 25
COC(=O)C1=C(O)C(C(=O)OC)C(c2ccc(C)cc2)C(C#N)(C#N)C1c1ccc(C)cc1 (stereo not drawn) | 4.71 µM | > 25
CCN(CC)C(=O)C1CC(=O)N(c2ccc(F)c(Cl)c2)C1 (stereo not drawn) | > 25 µM (inactive) | > 25
CCC(CC)C(=O)c1c[nH]c(C(=O)NCCCN2CCOCC2)c1 | > 25 µM (inactive) | > 25
O=C1NC(Nc2nc3ccccc3s2)(C(F)(F)F)C(=O)N1C1CCCCC1 (stereo not drawn) | 20 µM | > 25
